Measured values published in patent US11377442B2, “Small molecule agonists and antagonists of NR2F6 activity” (ZANDER THERAPEUTICS, INC., priority 2016, dated 2022).
Where two headings read alike, the source gives them in different places.

Key:
Assay type in all cases: cell-based
NR2F6 LBD = target: T1, NR2F6 LBD (Homo sapiens, UniProt P10588); test: NR2F6 LBD transient transfection; conditions: LBD
T1 construct: expressed in transfected cells
T1 sequence (P10588 165-393 limits assumed): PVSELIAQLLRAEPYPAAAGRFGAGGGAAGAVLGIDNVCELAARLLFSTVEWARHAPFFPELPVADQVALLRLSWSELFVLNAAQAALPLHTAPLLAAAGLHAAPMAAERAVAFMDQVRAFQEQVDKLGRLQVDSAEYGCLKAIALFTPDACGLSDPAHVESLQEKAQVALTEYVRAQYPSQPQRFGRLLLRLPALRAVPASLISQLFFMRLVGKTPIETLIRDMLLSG
In short: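 LBD-transfected cells treated at 40, 10, 2 and 0.5 μM (4 replicates); cytotoxicity measured in parallel, normalized to DMSO (0%) and zero signal (100%). Higher concentrations excluded where signal loss reflected toxicity.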

NR2F6 = target: T2, NR2F6 (Homo sapiens, UniProt P10588); test: NR2F6 agonist screening, Firefly signal cmpd/DMSO
T2 construct: expressed in transfected cells; also transient transfection
T2 sequence (P10588 1-404): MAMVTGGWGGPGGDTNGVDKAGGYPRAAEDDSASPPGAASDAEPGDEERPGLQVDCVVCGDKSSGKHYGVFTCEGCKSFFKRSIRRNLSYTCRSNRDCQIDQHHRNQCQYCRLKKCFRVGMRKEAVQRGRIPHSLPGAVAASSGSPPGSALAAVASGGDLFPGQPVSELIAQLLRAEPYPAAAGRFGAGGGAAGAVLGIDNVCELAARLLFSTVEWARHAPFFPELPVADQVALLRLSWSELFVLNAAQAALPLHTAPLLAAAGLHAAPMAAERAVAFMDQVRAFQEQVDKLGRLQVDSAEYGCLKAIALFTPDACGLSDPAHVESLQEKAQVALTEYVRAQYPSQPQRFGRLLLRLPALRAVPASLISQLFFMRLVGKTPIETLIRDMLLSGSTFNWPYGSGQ

Renilla = Renilla signal in NR2F6 agonist screening, cmpd/DMSO; conditions: Renilla, F4
HEK293 pGL4 = test: Firefly_pGL signal, cmpd/DMSO (pGL4 control cells); conditions: Homo sapiens
[1] = read-out: Renilla, F4, cmpd/DMSO (mean)
[2] = 1% FBS, read-out: Renilla, F4, 1% FBS, cmpd/DMSO (mean)
[3] = 10% FBS, read-out: Renilla, F4, 10% FBS, cmpd/DMSO (mean)

## O=S1(=O)C[C@H](NCCc2cccs2)[C@@H](S(=O)(=O)c2ccc(Cl)cc2)C1 [Compound D128]
NR2F6 LBD; 0.5 uM
  Firefly LBD, cmpd/DMSO (mean): 1.0
NR2F6 LBD; 2 uM
  Firefly LBD, cmpd/DMSO (mean): 1.1
NR2F6 LBD; 10 uM
  Firefly LBD, cmpd/DMSO (mean): 2.4
NR2F6 LBD; 40 uM
  Firefly LBD, cmpd/DMSO (mean): 2.6
NR2F6; 0.5 uM
  Firefly F4, cmpd/DMSO (mean): 1.1
  Firefly, F4, 1% FBS, cmpd/DMSO (mean): 1.2
NR2F6; 2 uM
  Firefly F4, cmpd/DMSO (mean): 1.7
  Firefly, F4, 1% FBS, cmpd/DMSO (mean): 1.5
NR2F6; 10 uM
  Firefly F4, cmpd/DMSO (mean): 2.7
  Firefly, F4, 1% FBS, cmpd/DMSO (mean): 2.0
NR2F6; 40 uM
  Firefly F4, cmpd/DMSO (mean): 3.5
  Firefly, F4, 1% FBS, cmpd/DMSO (mean): 2.0
NR2F6; 10% FBS, 40 uM
  F4, Firefly/Renilla for S/B(F4) > 3: 2.2
  Firefly, F4/pGL4 for S/B(F4) > 3: 1.9
  Firefly, F4, 10% FBS, cmpd/DMSO (mean): 3.3
NR2F6; 10% FBS, 0.5 uM
  Firefly, F4, 10% FBS, cmpd/DMSO (mean): 0.8
NR2F6; 10% FBS, 2 uM
  Firefly, F4, 10% FBS, cmpd/DMSO (mean): 0.9
NR2F6; 10% FBS, 10 uM
  Firefly, F4, 10% FBS, cmpd/DMSO (mean): 1.4
Renilla; [1]
  fold induction at 0.5 µM: 1
  fold induction at 2 µM: 1.2
  fold induction at 10 µM: 1.4
  fold induction at 40 µM: 1.6
Renilla; [2]
  fold induction at 0.5 µM: 1.2
  fold induction at 2 µM: 1.1
  fold induction at 10 µM: 1.6
  fold induction at 40 µM: 1.7
Renilla; [3]
  fold induction at 0.5 µM: 0.9
  fold induction at 2 µM: 1
  fold induction at 10 µM: 1.1
  fold induction at 40 µM: 1.5
HEK293 pGL4; HEK293, 0.5 uM, pGL4, read-out: Firefly pGL4, cmpd/DMSO (mean)
  fold induction at 0.5 µM: 1.2
HEK293 pGL4; HEK293, 2 uM, pGL4, read-out: Firefly pGL4, cmpd/DMSO (mean)
  fold induction at 2 µM: 1.6
HEK293 pGL4; HEK293, 10 uM, pGL4, read-out: Firefly pGL4, cmpd/DMSO (mean)
  fold induction at 10 µM: 2.1
HEK293 pGL4; HEK293, 40 uM, pGL4, read-out: Firefly pGL4, cmpd/DMSO (mean)
  fold induction at 40 µM: 1.5
HEK293 pGL4; HEK293, pGL4, 1% FBS, 0.5 uM, read-out: Firefly, pGL4, 1% FBS, cmpd/DMSO (mean)
  fold induction at 0.5 µM: 1.1
HEK293 pGL4; HEK293, pGL4, 1% FBS, 2 uM, read-out: Firefly, pGL4, 1% FBS, cmpd/DMSO (mean)
  fold induction at 2 µM: 1.3
HEK293 pGL4; HEK293, pGL4, 1% FBS, 10 uM, read-out: Firefly, pGL4, 1% FBS, cmpd/DMSO (mean)
  fold induction at 10 µM: 1.9
HEK293 pGL4; HEK293, pGL4, 1% FBS, 40 uM, read-out: Firefly, pGL4, 1% FBS, cmpd/DMSO (mean)
  fold induction at 40 µM: 1.5
HEK293 pGL4; HEK293, pGL4, 10% FBS, 0.5 uM, read-out: Firefly, pGL4, 10% FBS, cmpd/DMSO (mean)
  fold induction at 0.5 µM: 0.8
HEK293 pGL4; HEK293, pGL4, 10% FBS, 2 uM, read-out: Firefly, pGL4, 10% FBS, cmpd/DMSO (mean)
  fold induction at 2 µM: 1.1
HEK293 pGL4; HEK293, pGL4, 10% FBS, 10 uM, read-out: Firefly, pGL4, 10% FBS, cmpd/DMSO (mean)
  fold induction at 10 µM: 1.5
HEK293 pGL4; HEK293, pGL4, 10% FBS, 40 uM, read-out: Firefly, pGL4, 10% FBS, cmpd/DMSO (mean)
  fold induction at 40 µM: 1.7
